Molecular target: T1, FXR (farnesoid-X-receptor; pCMVSPORT-FXR) (Homo sapiens, UniProt Q96RI1)
T1 construct: gene NR1H4; FXR expressed from pCMVSPORT-FXR, co-transfected with pSG5-RXR in HepG2 cells; p(hsp27)TKLUC luciferase reporter (IR1 element), Renilla normalisation
T1 sequence (Q96RI1 1-486): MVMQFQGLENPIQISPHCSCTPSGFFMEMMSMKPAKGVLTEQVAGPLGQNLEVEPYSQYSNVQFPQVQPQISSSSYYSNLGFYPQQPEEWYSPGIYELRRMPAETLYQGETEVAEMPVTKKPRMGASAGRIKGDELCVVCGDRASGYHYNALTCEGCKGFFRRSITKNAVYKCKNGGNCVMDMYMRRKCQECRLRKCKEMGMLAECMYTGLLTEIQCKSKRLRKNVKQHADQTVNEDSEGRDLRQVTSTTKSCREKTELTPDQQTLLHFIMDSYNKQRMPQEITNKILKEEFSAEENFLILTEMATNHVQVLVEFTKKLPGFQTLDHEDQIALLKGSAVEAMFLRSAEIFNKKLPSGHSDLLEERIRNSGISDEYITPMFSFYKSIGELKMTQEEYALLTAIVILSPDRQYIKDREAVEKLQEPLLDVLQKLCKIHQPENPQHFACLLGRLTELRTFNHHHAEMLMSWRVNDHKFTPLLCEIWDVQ
T1 sequence (P19793 1-462 partner): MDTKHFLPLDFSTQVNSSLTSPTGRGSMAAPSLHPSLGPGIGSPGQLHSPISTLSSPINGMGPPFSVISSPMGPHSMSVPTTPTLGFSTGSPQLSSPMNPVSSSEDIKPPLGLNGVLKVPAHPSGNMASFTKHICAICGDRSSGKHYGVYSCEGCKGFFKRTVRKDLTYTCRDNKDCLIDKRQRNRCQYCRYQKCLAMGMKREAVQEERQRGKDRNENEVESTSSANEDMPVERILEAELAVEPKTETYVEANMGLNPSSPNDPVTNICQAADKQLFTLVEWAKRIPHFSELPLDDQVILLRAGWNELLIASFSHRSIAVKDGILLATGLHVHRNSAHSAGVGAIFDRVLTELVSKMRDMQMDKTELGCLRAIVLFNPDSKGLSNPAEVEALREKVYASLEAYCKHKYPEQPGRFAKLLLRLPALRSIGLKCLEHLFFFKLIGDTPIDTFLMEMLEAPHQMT
Assay: luciferase reporter transactivation assay in transfected HepG2, antagonist mode
Format: cell-based

For C=C1[C@@H](O)CC[C@@]2(C)[C@H]1CCC1=C3CC[C@H]([C@H](C)CC[C@H](CC)C(C)C)[C@@]3(C)CC[C@@H]12 [compound 1, theonellasterol], the EC50 was about 50 µM.
